The record followed here is patent publication US7759369B2, “Pyridine compounds for the treatment of prostaglandin mediated diseases” (Glaxo Group Limited, priority 2004, dated 2010).

Counter-ions that a name gives are not always drawn.

Experiment [1] deals with T1, EP1 receptors (Homo sapiens, UniProt P34995).
T1 sequence (P34995 1-402): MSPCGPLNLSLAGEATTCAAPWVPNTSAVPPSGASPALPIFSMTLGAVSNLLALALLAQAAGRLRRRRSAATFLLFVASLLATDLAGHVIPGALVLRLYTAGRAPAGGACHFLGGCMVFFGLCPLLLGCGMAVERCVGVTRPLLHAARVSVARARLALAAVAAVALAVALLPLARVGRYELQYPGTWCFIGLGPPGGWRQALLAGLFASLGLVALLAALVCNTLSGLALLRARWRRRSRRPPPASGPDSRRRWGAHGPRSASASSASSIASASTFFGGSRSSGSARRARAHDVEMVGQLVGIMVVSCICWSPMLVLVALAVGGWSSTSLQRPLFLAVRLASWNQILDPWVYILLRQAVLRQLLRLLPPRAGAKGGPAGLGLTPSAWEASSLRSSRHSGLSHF
Kind of experiment: Binding assay for the human prostanoid EP1 receptor (competition with [3H]-PGE2). More on the design: expressed in transfected cells; host or cells: CHO-K1 (membrane fraction). The following applies: averages of a number of experiments; Example 3 as sodium salt; read-out: pIC50 value in the binding assay for the human prostanoid EP1 receptor (converted). As to the method:
Binding Assay for the Human Prostanoid EP1 Receptor
Competition assay using [^3H]-PGE2.
Compound potencies are determined using a radioligand binding assay. In this assay compound potencies are determined from their ability to compete with tritiated prostaglandin E2 ([^3H]-PGE2) for binding to the human EP1 receptor.
This assay utilises Chinese hamster ovary-K1 (CHO-K1) cells into which a stable vector containing the EP1 cDNA has previously been transfected. Cells are cultured in suitable flasks containing culture medium such as DMEM:F-12 supplemented with 10% v/v foetal calf serum, 2 mM L-glutamine, 0.25 mg/ml geneticin, 10 μg/ml puromycin and 10 μM indomethacin.
Cells are detached from the culture flasks by incubation in calcium and magnesium free phosphate buffered saline containing 1 mM disodium ethylenediaminetetraacetic acid (Na2EDTA) and 10 μM indomethacin for 5 min. The cells are isolated by centrifugation at 250×g for 5 mins and suspended in an ice cold buffer such as 50 mM Tris, 1 mM Na2EDTA, 140 mM NaCl, 10 μM indomethacin (pH 7.4). The cells are homogenised using a Polytron tissue disrupter (2×10s burst at full setting), centrifuged at 48,000×g for 20 mins and the pellet containing the membrane fraction is washed (optional) three times by suspension and centrifugation at 48,000×g for 20 mins. The final membrane pellet is suspended in an assay buffer such as 10 mM 2-[N-morpholino]ethanesulphonic acid, 1 mM Na2EDTA, 10 mM MgCl2 (pH 6). Aliquots are frozen at −80° C. until required.
For the binding assay the cell membranes, competing compounds and [^3H]-PGE2 (3 nM final assay concentration) are incubated in a final volume of 100 μl for 30 min at 30° C. All reagents are prepared in assay buffer. Reactions are terminated by rapid vacuum filtration over GF/B filters using a Brandell cell harvester. The filters are washed with ice cold assay buffer, dried and the radioactivity retained on the filters is measured by liquid scintillation counting in Packard TopCount scintillation counter.
The data are analysed using non linear curve fitting techniques to determine the concentration of compound producing 50% inhibition of specific binding (IC50).

Experiment [2] addresses T2, EP3 receptors (Homo sapiens, UniProt P43115).
T2 construct: expressed in transfected cells; host or cells: CHO-K1
T2 sequence (P43115 1-390): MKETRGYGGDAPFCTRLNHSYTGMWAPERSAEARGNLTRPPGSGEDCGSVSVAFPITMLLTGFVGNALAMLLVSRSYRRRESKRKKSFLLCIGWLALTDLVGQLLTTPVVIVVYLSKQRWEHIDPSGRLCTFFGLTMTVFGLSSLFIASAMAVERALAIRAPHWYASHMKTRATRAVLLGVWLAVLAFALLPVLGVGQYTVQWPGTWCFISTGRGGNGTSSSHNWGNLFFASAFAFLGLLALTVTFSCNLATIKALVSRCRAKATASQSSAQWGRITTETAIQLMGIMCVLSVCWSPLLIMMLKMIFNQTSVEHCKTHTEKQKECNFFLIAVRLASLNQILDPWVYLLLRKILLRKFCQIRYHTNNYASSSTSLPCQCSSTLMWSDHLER
Kind of experiment: human EP3 calcium mobilisation assay (CHO-K1 cells, PGE2, FLIPR). Type of experiment: cell-based. The following applies: free bases or sodium salts; averages of a number of experiments; read-out: functional pKi value, human EP3 calcium mobilisation assay (converted). As to the method: Briefly, the antagonist properties of compounds are assessed by their ability to inhibit the mobilisation of intracellular calcium ([Ca^2+]i) in response to activation of EP1 or EP3 receptors by the natural agonist hormone prostaglandin E2 (PGE2). Increasing concentrations of antagonist reduce the amount of calcium that a given concentration of PGE2 can mobilise. The net effect is to displace the PGE2 concentration-effect curve to higher concentrations of PGE2. The amount of calcium produced is assessed using a calcium-sensitive fluorescent dye such as Fluo-4, AM and a suitable instrument such as a Fluorimetric Imaging Plate Reader (FLIPR). Increasing amounts of [Ca^2+]i produced by receptor activation increase the amount of fluorescence produced by the dye and give rise to an increasing signal. The signal may be detected using the FLIPR instrument and the data generated may be analysed with suitable curve-fitting software.
The human EP1 or EP3 calcium mobilisation assay (hereafter referred to as ‘the calcium assay’) utilises Chinese hamster ovary-K1 (CHO-K1) cells into which a stable (pCIN; BioTechniques 20 (1996): 102-110) vector containing either EP1 or EP3 cDNA has previously been transfected. Cells are cultured in suitable flasks containing culture medium such as DMEM:F-12 supplemented with 10% v/v foetal calf serum, 2 mM L-glutamine, 0.25 mg/ml geneticin, 100 μM flurbiprofen and 10 µg/ml puromycin.
For assay, cells are harvested using a proprietary reagent that dislodges cells such as Versene. Cells are re-suspended in a suitable quantity of fresh culture media for introduction into a 384-well plate. Following incubation for 24 hours at 37° C. the culture media is replaced with a medium containing Fluo-4 and the detergent pluronic acid, and a further incubation takes place. Concentrations of compounds are then added to the plate in order to construct concentration-effect curves. This may be performed on the FLIPR in order to assess the agonist properties of the compounds. Concentrations of PGE2 are then added to the plate in order to assess the antagonist properties of the compounds.
The data so generated may be analysed by means of a computerised curve-fitting routine. The concentration of compound that elicits a half-maximal inhibition of the calcium mobilisation induced by PGE2 (pIC50) may then be estimated.

Take `Fc1cc(Cl)ccc1COc1ccc(Cl)cc1Cc1cccc(-c2nnn[nH]2)n1` [Example 38, 2-[(5-Chloro-2-{[(4-chloro-2-fluorophenyl)methyl]oxy}phenyl)-methyl]-6-(1H-tetrazol-5-yl)pyridine]: the IC50 in experiment [1] is no more than 31.6 nM.

As for `O=C(O)c1cccc(Cc2cc(Cl)ccc2OCc2ccc(F)cc2F)n1` [Example 4, Sodium 6-[(5-chloro-2-{[(2,4-difluorophenyl)methyl]oxy}phenyl)methyl]-2-pyridinecarboxylate], the Ki in experiment [2] was greater than 10000 nM. Further, in experiment [1], the IC50 was no more than 31.6 nM.

`CS(=O)(=O)NC(=O)c1cccc(Cc2cc(Cl)ccc2OCc2ccc(Cl)cc2F)n1` [Example 29, 6-[(5-Chloro-2-{[(4-chloro-2-fluorophenyl)methyl]oxy}-phenyl)methyl]-N-(methylsulphonyl)-2-pyridinecarboxamide]: in experiment [2], the Ki is greater than 10000 nM. Further, the IC50 in experiment [1] was no more than 31.6 nM.

As to `O=C(O)c1cccc(Cc2cc(Cl)ccc2OCc2cc(F)c(F)cc2F)n1` [Example 10, Sodium 6-[(5-chloro-2-{[(2,4,5-trifluorophenyl)methyl]oxy}phenyl)methyl]-2-pyridinecarboxylate], the Ki in experiment [2] was greater than 10000 nM. Moreover, in experiment [1], the IC50 was no more than 31.6 nM.

Turning to `O=C(O)c1cccc(Cc2cc(Cl)ccc2OCc2ccc(Cl)cc2F)n1` [Example 3, Sodium 6-[(5-chloro-2-{[(4-chloro-2-fluorophenyl)methyl]oxy}phenyl)methyl]-2-pyridinecarboxylate], the IC50 in experiment [1] is no more than 31.6 nM.

On to `Cc1ccc(C(=O)O)nc1Cc1cc(Cl)ccc1OCc1ccc(Cl)cc1F` [Example 39, 6-[(5-Chloro-2-{[(4-chloro-2-fluorophenyl)methyl]oxy}-phenyl)methyl]-5-methyl-2-pyridinecarboxylic acid, sodium salt], for which, in experiment [1], the IC50 is no more than 31.6 nM.

As for `O=C(NS(=O)(=O)c1ccc(Br)cc1)c1cccc(Cc2cc(Cl)ccc2OCc2ccc(Cl)cc2F)n1` [Example 33, N-[(4-Bromophenyl)sulphonyl]-6-[(5-chloro-2-{[(4-chloro-2-fluorophenyl)methyl]oxy}phenyl)-methyl]-2-pyridinecarboxamide], in experiment [1], the IC50 was no more than 31.6 nM.

`O=C(O)c1cccc(Cc2cc(Cl)ccc2OCC2CCCC2)n1` [Example 14, Sodium 6-({5-chloro-2-[(cyclopentylmethyl)oxy]phenyl}methyl)-2-pyridinecarboxylate]: in experiment [1], the IC50 was no more than 31.6 nM.

As for `O=C(O)c1cccc(Cc2cc(Cl)ccc2OCc2ccc(F)cc2Cl)n1` [Example 11, Sodium 6-[(5-chloro-2-{[(2-chloro-4-fluorophenyl)methyl]oxy}phenyl)methyl]-2-pyridinecarboxylate], the Ki in experiment [2] was greater than 10000 nM. The IC50 in experiment [1] is no more than 31.6 nM.

In the case of `O=C(NS(=O)(=O)c1ccccc1)c1cccc(Cc2cc(Cl)ccc2OCc2ccc(Cl)cc2F)n1` [Example 28, 6-[(5-chloro-2-{[(4-chloro-2-fluorophenyl)methyl]oxy}phenyl)-methyl]-N-(phenylsulphonyl)-2-pyridinecarboxamide], in experiment [2], the Ki is greater than 10000 nM. Besides, in experiment [1], the IC50 is no more than 31.6 nM.

As for `O=C(O)c1cccc(Cc2cc(Cl)ccc2OCc2ccc(Cl)cc2Cl)n1` [Example 12, Sodium 6-[(5-chloro-2-{[(2,4-dichlororophenyl)methyl]oxy}phenyl)methyl]-2-pyridinecarboxylate], in experiment [1], the IC50 was no more than 31.6 nM.

As to `CCCS(=O)(=O)NC(=O)c1cccc(Cc2cc(Cl)ccc2OCc2ccc(Cl)cc2F)n1` [Example 30, 6-[(5-Chloro-2-{[(4-chloro-2-fluorophenyl)methyl]oxy}-phenyl)methyl]-N-(propylsulphonyl)-2-pyridinecarboxamide], in experiment [2], the Ki is greater than 10000 nM. Moreover, in experiment [1], the IC50 was no more than 31.6 nM.

For `Cc1noc(C)c1S(=O)(=O)NC(=O)c1cccc(Cc2cc(Cl)ccc2OCc2ccc(Cl)cc2F)n1` [Example 36, 6-[(5-Chloro-2-{[(4-chloro-2-fluorophenyl)methyl]oxy}-phenyl)methyl]-N-[(3,5-dimethyl-4-isoxazolyl)sulphonyl]-2-pyridinecarboxamide], the Ki in experiment [2] was greater than 10000 nM. The IC50 in experiment [1] is no more than 31.6 nM.

Turning to `O=C(NS(=O)(=O)c1cccc(Br)c1)c1cccc(Cc2cc(Cl)ccc2OCc2ccc(Cl)cc2F)n1` [Example 34, N-[(3-Bromophenyl)sulphonyl]-6-[(5-chloro-2-{[(4-chloro-2-fluorophenyl)methyl]oxy}phenyl)-methyl]-2-pyridinecarboxamide], in experiment [1], the IC50 is no more than 31.6 nM.
